Like-named read-outs stand apart in the source and are kept apart here.

Common to all, as to assay type: biochemical
For assay [1], the target named is 320 wild-type protein kinases (Homo sapiens, UniProt O75582). The note with it: kinase RPS6KA5, singlicate. The text has this:
(§1) Table S4. Profiling of two compounds at two concentrations against 320 wild-type protein kinases; singlicate measurement; Residual activities (% of control).

Assay [2] deals with 320 wild-type protein kinases (Homo sapiens, UniProt O96013). The conditions noted are these: singlicate.
From the text: as §1

For assay [3], the target named is 320 wild-type protein kinases (Homo sapiens, UniProt P07949). The note with it: kinase RET, singlicate.
From the text: as §1

For assay [4], the target named is 320 wild-type protein kinases (Homo sapiens, UniProt P19784). The conditions noted are these: singlicate.
From the text: as §1

The target in assay [5] is 320 wild-type protein kinases (Homo sapiens, UniProt P53667). The conditions noted are these: singlicate.
From the text: as §1

The target in assay [6] is T1, 320 wild-type protein kinases (Homo sapiens, UniProt P53778).
T1 sequence (P53778 1-367): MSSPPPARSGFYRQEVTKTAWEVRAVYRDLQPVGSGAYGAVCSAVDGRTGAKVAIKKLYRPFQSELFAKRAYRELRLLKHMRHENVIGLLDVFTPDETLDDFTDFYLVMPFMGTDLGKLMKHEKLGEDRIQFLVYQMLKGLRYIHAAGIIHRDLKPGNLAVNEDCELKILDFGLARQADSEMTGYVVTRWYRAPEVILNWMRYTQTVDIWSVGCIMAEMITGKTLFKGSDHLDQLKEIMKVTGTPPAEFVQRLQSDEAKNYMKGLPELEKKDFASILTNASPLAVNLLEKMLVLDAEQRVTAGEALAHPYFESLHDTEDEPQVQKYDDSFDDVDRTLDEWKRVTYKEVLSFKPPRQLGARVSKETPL
The note with it: p38-gamma, singlicate.
From the text: as §1

Assay [7] concerns the target 320 wild-type protein kinases (Homo sapiens, UniProt Q02763). The conditions noted are these: kinase TIE2, singlicate.
From the text: as §1

The target in assay [8] is 320 wild-type protein kinases (Homo sapiens, UniProt Q02779). The note with it: singlicate.
From the text: as §1

Assay [9] concerns the target 320 wild-type protein kinases (Homo sapiens, UniProt Q07912). The note with it: singlicate.
From the text: as §1

The target of assay [10] is 320 wild-type protein kinases (Homo sapiens, UniProt Q13705). The conditions noted are these: ACV-R2B, singlicate.
From the text: as §1

Assay [11] has as its target T2, 320 wild-type protein kinases (Homo sapiens, UniProt Q32MK0).
T2 sequence (Q32MK0 1-819): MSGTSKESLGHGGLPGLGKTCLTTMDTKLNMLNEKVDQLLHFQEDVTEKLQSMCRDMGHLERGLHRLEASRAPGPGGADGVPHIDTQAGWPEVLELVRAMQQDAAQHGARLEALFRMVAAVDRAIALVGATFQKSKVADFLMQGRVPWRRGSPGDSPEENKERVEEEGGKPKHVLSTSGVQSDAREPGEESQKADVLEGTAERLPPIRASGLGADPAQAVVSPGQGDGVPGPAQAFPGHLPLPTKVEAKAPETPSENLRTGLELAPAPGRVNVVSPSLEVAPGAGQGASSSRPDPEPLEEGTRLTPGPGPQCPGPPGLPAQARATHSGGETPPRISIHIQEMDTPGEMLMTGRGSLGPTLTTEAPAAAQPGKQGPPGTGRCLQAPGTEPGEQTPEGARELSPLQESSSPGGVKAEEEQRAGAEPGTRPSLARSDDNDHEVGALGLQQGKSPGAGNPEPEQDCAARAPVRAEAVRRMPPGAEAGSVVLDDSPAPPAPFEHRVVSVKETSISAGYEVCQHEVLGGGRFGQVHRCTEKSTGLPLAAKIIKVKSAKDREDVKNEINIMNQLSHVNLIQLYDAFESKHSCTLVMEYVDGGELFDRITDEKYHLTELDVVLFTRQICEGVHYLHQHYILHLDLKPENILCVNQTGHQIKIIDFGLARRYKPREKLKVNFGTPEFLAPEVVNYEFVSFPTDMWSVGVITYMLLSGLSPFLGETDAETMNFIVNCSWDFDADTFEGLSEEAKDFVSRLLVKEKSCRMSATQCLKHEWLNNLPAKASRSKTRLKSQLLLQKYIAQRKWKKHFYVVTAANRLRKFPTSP
The note with it: singlicate.
From the text: as §1

In assay [12] the target is 320 wild-type protein kinases (Homo sapiens, UniProt Q9BQI3). The conditions noted are these: HRI, singlicate.
From the text: as §1

Chain of 320 wild-type protein kinases (Homo sapiens, UniProt Q9BQI3) (Q9BQI3 whole entry): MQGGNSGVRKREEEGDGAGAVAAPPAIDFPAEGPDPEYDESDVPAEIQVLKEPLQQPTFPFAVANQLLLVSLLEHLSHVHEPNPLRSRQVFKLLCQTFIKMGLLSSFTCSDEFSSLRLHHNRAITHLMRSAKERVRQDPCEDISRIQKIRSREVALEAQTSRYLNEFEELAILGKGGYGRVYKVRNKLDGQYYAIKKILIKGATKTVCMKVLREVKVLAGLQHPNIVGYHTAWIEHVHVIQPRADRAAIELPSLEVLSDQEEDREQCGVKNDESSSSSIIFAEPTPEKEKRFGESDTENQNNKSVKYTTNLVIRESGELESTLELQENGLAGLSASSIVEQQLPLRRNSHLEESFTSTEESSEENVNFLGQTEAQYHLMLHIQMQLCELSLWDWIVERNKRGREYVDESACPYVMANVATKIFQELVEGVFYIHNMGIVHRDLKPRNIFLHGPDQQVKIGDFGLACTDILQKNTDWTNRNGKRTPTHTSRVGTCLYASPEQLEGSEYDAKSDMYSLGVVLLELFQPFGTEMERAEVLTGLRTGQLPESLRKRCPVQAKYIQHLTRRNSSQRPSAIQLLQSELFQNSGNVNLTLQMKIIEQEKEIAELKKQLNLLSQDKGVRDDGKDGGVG
Chain of 320 wild-type protein kinases (Homo sapiens, UniProt O75582) (O75582 whole entry): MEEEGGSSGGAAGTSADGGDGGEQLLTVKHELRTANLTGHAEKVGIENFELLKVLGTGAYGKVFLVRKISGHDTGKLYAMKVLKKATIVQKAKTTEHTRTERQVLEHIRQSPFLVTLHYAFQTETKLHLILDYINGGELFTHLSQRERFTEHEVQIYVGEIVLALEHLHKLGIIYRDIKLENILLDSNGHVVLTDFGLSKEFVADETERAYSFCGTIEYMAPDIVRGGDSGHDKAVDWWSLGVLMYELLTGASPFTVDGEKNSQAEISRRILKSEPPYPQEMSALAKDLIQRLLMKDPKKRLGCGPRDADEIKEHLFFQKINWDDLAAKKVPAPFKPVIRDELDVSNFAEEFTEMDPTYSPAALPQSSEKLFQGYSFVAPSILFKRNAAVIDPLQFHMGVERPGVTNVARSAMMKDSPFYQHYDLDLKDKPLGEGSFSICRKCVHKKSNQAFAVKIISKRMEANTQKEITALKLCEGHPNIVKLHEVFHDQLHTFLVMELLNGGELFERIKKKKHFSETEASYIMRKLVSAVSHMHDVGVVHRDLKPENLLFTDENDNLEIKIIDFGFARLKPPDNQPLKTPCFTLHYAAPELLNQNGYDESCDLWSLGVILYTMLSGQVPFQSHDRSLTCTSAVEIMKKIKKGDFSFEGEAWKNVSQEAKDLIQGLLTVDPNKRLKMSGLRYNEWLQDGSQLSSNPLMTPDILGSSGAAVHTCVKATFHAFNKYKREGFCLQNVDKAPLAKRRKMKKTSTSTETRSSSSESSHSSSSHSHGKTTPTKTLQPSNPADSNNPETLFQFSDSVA
Chain of 320 wild-type protein kinases (Homo sapiens, UniProt Q02763) (Q02763 23-1124): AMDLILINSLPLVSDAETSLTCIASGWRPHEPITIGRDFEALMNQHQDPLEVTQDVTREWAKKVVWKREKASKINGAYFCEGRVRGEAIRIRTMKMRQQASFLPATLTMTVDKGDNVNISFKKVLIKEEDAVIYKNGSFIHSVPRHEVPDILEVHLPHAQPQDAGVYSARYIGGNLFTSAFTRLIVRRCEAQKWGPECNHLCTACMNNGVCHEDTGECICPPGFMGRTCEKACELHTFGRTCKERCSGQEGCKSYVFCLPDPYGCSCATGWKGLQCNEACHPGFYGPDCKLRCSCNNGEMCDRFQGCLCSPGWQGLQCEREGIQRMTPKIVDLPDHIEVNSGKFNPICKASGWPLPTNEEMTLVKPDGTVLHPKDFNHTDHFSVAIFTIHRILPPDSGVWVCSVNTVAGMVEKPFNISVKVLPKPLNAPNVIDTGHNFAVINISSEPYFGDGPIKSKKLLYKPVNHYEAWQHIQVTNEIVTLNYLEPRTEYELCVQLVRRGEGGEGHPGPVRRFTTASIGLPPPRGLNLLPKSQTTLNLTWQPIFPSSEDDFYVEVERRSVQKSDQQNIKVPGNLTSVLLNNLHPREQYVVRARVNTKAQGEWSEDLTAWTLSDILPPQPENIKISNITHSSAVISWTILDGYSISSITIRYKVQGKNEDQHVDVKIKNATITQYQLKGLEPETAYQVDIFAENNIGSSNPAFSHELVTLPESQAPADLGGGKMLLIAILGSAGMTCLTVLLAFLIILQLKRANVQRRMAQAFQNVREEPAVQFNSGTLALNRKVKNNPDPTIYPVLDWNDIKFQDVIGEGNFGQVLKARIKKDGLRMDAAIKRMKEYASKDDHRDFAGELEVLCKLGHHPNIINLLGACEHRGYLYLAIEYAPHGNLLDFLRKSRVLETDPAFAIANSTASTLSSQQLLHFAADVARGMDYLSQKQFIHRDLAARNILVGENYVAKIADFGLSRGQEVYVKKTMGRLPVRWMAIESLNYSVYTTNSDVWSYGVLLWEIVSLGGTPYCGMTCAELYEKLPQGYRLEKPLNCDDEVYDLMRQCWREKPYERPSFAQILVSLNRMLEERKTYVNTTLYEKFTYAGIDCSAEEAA
Chain of 320 wild-type protein kinases (Homo sapiens, UniProt Q02779) (Q02779 whole entry): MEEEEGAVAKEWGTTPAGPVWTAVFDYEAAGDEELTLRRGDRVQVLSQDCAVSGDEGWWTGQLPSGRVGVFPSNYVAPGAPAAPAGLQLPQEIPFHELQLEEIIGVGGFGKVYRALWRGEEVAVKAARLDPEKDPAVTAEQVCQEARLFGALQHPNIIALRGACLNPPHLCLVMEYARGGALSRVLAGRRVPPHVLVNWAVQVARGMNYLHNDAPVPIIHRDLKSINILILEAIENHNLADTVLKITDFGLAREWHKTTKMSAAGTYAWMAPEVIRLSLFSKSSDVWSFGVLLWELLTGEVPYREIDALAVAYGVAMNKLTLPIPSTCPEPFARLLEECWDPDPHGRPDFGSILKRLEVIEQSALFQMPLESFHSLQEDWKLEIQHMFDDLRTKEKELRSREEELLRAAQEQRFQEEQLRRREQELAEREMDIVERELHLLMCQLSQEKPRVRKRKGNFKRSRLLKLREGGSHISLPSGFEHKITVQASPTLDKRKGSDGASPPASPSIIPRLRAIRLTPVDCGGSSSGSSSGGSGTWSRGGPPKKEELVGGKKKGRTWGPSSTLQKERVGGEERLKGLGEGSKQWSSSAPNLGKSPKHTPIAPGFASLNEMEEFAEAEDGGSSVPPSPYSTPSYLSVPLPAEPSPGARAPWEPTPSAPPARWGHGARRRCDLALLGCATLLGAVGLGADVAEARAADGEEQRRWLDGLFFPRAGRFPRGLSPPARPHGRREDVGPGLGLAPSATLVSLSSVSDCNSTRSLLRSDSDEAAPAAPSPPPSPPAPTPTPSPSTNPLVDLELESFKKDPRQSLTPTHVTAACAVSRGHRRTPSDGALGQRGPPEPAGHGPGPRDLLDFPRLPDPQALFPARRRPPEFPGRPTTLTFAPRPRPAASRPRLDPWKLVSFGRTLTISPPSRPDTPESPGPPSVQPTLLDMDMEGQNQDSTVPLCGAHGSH
Chain of 320 wild-type protein kinases (Homo sapiens, UniProt P53667) (P53667 whole entry): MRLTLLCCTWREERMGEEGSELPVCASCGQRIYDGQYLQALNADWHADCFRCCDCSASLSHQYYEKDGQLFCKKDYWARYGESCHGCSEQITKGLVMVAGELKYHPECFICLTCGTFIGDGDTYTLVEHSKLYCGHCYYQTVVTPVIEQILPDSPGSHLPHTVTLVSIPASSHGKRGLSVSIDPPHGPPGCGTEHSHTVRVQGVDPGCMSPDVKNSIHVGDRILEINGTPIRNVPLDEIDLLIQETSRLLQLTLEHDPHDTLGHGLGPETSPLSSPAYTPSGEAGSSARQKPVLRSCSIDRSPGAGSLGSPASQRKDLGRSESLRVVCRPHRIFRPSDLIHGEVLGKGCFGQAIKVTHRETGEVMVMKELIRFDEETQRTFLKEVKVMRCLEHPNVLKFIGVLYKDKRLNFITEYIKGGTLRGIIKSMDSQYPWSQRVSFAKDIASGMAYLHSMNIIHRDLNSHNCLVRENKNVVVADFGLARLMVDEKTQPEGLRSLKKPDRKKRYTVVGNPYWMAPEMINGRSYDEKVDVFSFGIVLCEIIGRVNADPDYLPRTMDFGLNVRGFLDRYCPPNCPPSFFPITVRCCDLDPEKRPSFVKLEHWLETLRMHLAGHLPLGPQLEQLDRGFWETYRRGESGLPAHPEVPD
Chain of 320 wild-type protein kinases (Homo sapiens, UniProt O96013) (O96013 whole entry): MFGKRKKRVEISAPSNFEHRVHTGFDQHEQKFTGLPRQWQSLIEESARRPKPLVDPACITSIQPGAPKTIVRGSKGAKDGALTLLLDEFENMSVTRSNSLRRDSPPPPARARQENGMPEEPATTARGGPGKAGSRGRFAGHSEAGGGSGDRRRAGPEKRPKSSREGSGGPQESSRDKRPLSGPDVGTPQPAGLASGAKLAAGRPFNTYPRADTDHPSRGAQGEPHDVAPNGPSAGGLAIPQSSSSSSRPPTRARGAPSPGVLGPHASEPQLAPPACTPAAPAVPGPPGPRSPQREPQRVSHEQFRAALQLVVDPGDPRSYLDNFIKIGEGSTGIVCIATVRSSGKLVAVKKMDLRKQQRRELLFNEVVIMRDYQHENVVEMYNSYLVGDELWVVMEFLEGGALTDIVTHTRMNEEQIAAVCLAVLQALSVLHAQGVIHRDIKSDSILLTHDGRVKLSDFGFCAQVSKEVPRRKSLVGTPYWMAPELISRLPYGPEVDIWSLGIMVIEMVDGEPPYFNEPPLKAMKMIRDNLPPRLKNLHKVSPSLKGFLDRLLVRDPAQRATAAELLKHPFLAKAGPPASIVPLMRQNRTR
Chain of 320 wild-type protein kinases (Homo sapiens, UniProt P19784) (P19784 whole entry): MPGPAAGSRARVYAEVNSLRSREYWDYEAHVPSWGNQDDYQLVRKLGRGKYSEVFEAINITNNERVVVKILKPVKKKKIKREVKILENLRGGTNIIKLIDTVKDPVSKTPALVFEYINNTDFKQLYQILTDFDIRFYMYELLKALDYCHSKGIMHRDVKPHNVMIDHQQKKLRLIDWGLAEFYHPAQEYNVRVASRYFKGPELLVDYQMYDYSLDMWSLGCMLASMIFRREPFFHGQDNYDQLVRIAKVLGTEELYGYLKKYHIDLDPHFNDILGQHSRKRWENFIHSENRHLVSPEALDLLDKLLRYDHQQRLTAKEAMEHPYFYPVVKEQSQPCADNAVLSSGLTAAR

Consider `C#Cc1cc(Nc2ncnc3cc(I)ccc23)ccc1Cl` [Compound 41], for which the “Residual activity, RPS6KA5” value is reported as 99 % of control in assay [1] (assay conc. 1.0E-06 M) and 112 % of control in [1] (assay conc. 1.0E-07 M). Further, the Residual activity in [2] (PAK4, 1.0E-06 M) is on record as 82 % of control; in assay [2] (PAK4, 1.0E-07 M) it was 103 % of control; in [4] (CK2-alpha2, 1.0E-06 M) it was 115 % of control; in assay [4] (CK2-alpha2, 1.0E-07 M), 115 % of control; in assay [5] (LIMK1, 1.0E-06 M), 86 % of control; in [5] (LIMK1, 1.0E-07 M), 101 % of control. In addition, the Residual activity in assay [6] (1.0E-06 M) is listed as 78 % of control; in assay [6] (1.0E-07 M), 87 % of control; in assay [8] (MAP3K10, 1.0E-06 M), 93 % of control; in assay [8] (MAP3K10, 1.0E-07 M), 102 % of control; in assay [9] (ACK1, 1.0E-06 M), 98 % of control; in assay [9] (ACK1, 1.0E-07 M) it was 134 % of control. The Residual activity in [10] (1.0E-06 M) is 84 % of control; in assay [10] (1.0E-07 M), 91 % of control; in [11] (MYLK3, 1.0E-06 M) it was 93 % of control; in assay [11] (MYLK3, 1.0E-07 M), 104 % of control; in assay [12] (1.0E-06 M) it was 89 % of control; in [12] (1.0E-07 M), 108 % of control. The “Residual activity, RET” value in [3] (assay conc. 1.0E-06 M) is recorded as 85 % of control; in [3] (assay conc. 1.0E-07 M), 102 % of control. Moreover, the results for the “Residual activity, TIE2” value in assay [7] (assay conc. 1.0E-06 M) and in [7] (assay conc. 1.0E-07 M) were 87 % of control and 84 % of control, respectively.

On to `C#Cc1cc(Nc2ncnc3cc(OC)c(OC)cc23)ccc1Cl` [Compound 45], for which the “Residual activity, RPS6KA5” value is recorded as 107 % of control in assay [1] (assay conc. 1.0E-06 M) and 104 % of control in [1] (assay conc. 1.0E-07 M). Further, the Residual activity in assay [2] (PAK4, 1.0E-06 M) was 95 % of control; in assay [2] (PAK4, 1.0E-07 M), 103 % of control; in assay [4] (CK2-alpha2, 1.0E-06 M) it was 111 % of control; in [4] (CK2-alpha2, 1.0E-07 M), 118 % of control; in assay [5] (LIMK1, 1.0E-06 M), 90 % of control; in assay [5] (LIMK1, 1.0E-07 M) it was 103 % of control. The Residual activity in assay [6] (1.0E-06 M) is on record as 85 % of control; in assay [6] (1.0E-07 M), 90 % of control; in assay [8] (MAP3K10, 1.0E-06 M), 86 % of control; in assay [8] (MAP3K10, 1.0E-07 M), 92 % of control; in assay [9] (ACK1, 1.0E-06 M) it was 63 % of control; in assay [9] (ACK1, 1.0E-07 M), 100 % of control. In addition, the Residual activity is recorded as 85 % of control in [10] (1.0E-06 M); 83 % of control in assay [10] (1.0E-07 M); 86 % of control in [11] (MYLK3, 1.0E-06 M); 100 % of control in assay [11] (MYLK3, 1.0E-07 M); 87 % of control in [12] (1.0E-06 M); 101 % of control in assay [12] (1.0E-07 M). Further, the “Residual activity, RET” value in assay [3] (assay conc. 1.0E-06 M) is reported as 51 % of control; in [3] (assay conc. 1.0E-07 M), 101 % of control. Also, the figures for the “Residual activity, TIE2” value in assay [7] (assay conc. 1.0E-06 M) and in [7] (assay conc. 1.0E-07 M) were 82 % of control and 111 % of control, respectively.
